Test results as given in US20230406821A1, “STRIGOLACTONE DERIVATIVES” (Plant Response, Inc., priority 2017, published 2023).

What was measured:
[1] = system: S. lycopersicum cv. Micro-Tom; assay: Stomatal conductance (LI-6400XT) after ABA treatment in tomato; format: in vivo, Solanum lycopersicum; conditions: 500 μM in DMSO (0.1%) applied one hour before ABA (100 μM), compared to ABA alone (FIG. 6)
Source text: FIG. 6 is a boxplot showing the distribution of tomato (S. lycopersicum cv. Micro-Tom) stomatal conductance (mmol/m^2/s) measurements taken via LI-6400XT, plotted by treatment. Plants treated with strigolactone molecule MBS-127 prior to treatment with abscisic acid (ABA) show increased stomatal conductance, as measured by gas exchange with the LI-6400XT, compared to plants treated with ABA alone. Stars indicate significant differences relative to ABA (*: adjusted P<0.05, **: adjusted P<0.01; p-values were adjusted for multiple-hypothesis testing using a Bonferroni correction).
An early response and critical component of abiotic stress response signaling in plants is the production and transport of the phytohormone abscisic acid (ABA) (Kuromori, T., et al., “ABA Transport and Plant Water Stress Responses,” Trends in Plant Science (2018) Vol. 23 (6), pp. 513-522). […]

[2] = system: Arabidopsis thaliana homozygous max4 knockout mutant; assay: Complementation of ectopic shoot branching in max4 strigolactone biosynthesis mutant; format: in vivo; conditions: max4 mutant line, 10 μM in 0.5× Hoagland's reservoir solution, 0.1% DMSO, 3 weeks of treatment, vs DMSO control (FIG. 1)
Source text: FIG. 1 is a plot of the number of secondary bolts over 0.5 cm long of strigolactone biosynthesis mutant, homozygous max4 knockout, plants that have a primary bolt over 6 cm long treated with solution containing control solvent DMSO, strigolactone molecule MBS-127 in DMSO, and strigolactone molecule MBS-128 in DMSO. Stars indicate significant differences relative to the DMSO control based on the Welch's t-test (*: adjusted p-value <0.1; p-values adjusted for multiple-hypothesis testing
The ability of a novel compound to act in an equivalent manner to a native strigolactone can be assessed by testing its ability to complement phenotypes caused by mutations that disrupt the natural biosynthesis of strigolactones within the plant.
The metric used to assess branching was the number of secondary bolts over 0.5 cm in length in plants that have a primary bolt over 6 cm long. Assessments were made after treatments with solution containing control solvent DMSO, the strigolactone molecule MBS-127 in DMSO, and the strigolactone molecule MBS-128 in DMSO as detailed below. Stratified A. thaliana homozygous max4 knockout mutant seeds were planted on rockwool plugs suspended above reservoirs of 0.5× Hoagland's solution. The plants were grown under 16 hours of light per day at 22° C. and at 19° C. during the nights throughout the experiment. […]

Z. mays = assay: Root hair elongation in maize under insufficient phosphate; format: in vivo, Zea mays; conditions: various nutrient levels, shown under insufficient phosphate conditions, vs DMSO (FIG. 4)
Source text: FIG. 4 is a boxplot graph representing the distribution of maximum root hair length in the root apical zone of Z. mays with the control solvent DMSO, strigolactone molecule MBS-127 in DMSO, and strigolactone molecule MBS-128 in DMSO. Stars indicate significant differences relative to the DMSO control (*: adjustedp-value <0.1; p-values were adjusted for multiple-hypothesis testing using a Bonferroni correction). Representative images show root hairs in the root apical zone of plants treated with the control solvent DMSO, strigolactone molecule MBS-127 in DMSO, and strigolactone molecule MBS-128 in DMSO. Scale bars equal 10 mm.

Structure (SMILES)	leaf (stomatal) conductance after ABA [1]	ectopic branching phenotype (number of secondary bolts over 0.5 cm on plants with primary bolt over 6 cm) [2]	root hair elongation (maximum root hair length in the root apical zone) (Z. mays)
COC(=O)/C=C/OC1C=C(C)C(=O)O1 (centres unmarked) [MBS-127, 3-(4-Methyl-5-oxo-2,5-dihydro-furan-2-yloxy)-acrylic acid methyl ester]	protect against the drought stress response related reduction in leaf conductance induced by ABA	effective in reducing the ectopic branching phenotype	induce root hair elongation
COC(=O)/C=C/OC1(C)C=C(C)C(=O)O1 (centres unmarked) [MBS-128, methyl (E)-3-((2,4-dimethyl-5-oxo-2,5-dihydrofuran-2-yl)oxy)acrylate]		effective in reducing the ectopic branching phenotype	induce root hair elongation
